In PubChem BioAssay AID330 (DTP/NCI, 2004) one finds T/C data, which are given here for 22 molecules.

Where “and” joins values, the source holds several entries; their conditions need not be identical. Equal entries are not always repeated. Toxic doses and inconclusive results are not listed. Peptide text beside a SMILES is read from it. * marks the point of attachment. Cbz = O=C(OCc1ccccc1)*

The experiment deals with P388 leukemia ip, CD2F1 mice, survival T/C. In words: NCI In Vivo Anticancer Drug Screen. Data for tumor model P388 Leukemia (intraperitoneal) in CD2F1 (CDF1) mice. To be noted: endpoint: median survival time, higher = longer survival. Here is the method: The antitumor activity of compounds was measured in mice bearing transplantable tumors. Survival or tumor size were measured and the results are expressed as the measurement made in the treated group (T) divided by the measurement made in the vehicle treated control group (C). The tumor model used in this assay is P388 Leukemia (intraperitoneal) in CD2F1 (CDF1) mice

[1] abbreviates: dose: 6.25 mg/kg/injection, schedule: Q01DX009 (ip), vehicle: saline with Tween-80.
Setting [2] is: dose: 12.5 mg/kg/injection, schedule: Q01DX009 (ip), vehicle: saline with Tween-80.
Setting [3] is: dose: 25.0 mg/kg/injection, schedule: Q01DX009 (ip), vehicle: saline with Tween-80.
The mark [4] stands for this setting: dose: 50.0 mg/kg/injection, schedule: Q01DX005 (ip), vehicle: Klucel (hydroxypropylcellulose) (HPC).
The mark [5] stands for this setting: dose: 100.0 mg/kg/injection, schedule: Q01DX005 (ip), vehicle: Klucel (hydroxypropylcellulose) (HPC).
Setting [6] is: dose: 50.0 mg/kg/injection, schedule: Q01DX009 (ip), vehicle: saline.
The mark [7] stands for this setting: dose: 100.0 mg/kg/injection, schedule: Q01DX009 (ip), vehicle: saline.
The mark [8] stands for this setting: dose: 200.0 mg/kg/injection, schedule: Q01DX005 (ip), vehicle: Klucel (hydroxypropylcellulose) (HPC).
[9] abbreviates: dose: 60.0 mg/kg/injection, schedule: Q01DX005 (ip), vehicle: saline with Tween-80.
Where [10] appears, read: dose: 120.0 mg/kg/injection, schedule: Q01DX005 (ip), vehicle: saline with Tween-80.
The mark [11] stands for this setting: dose: 240.0 mg/kg/injection, schedule: Q01DX005 (ip), vehicle: saline with Tween-80.
Where [12] appears, read: dose: 100.0 mg/kg/injection, schedule: Q04DX003 (ip), vehicle: saline.
Where [13] appears, read: dose: 200.0 mg/kg/injection, schedule: Q04DX003 (ip), vehicle: saline.

`Cc1cc(O)c2c(c1)C(=O)C13C(=C2O)C(=O)C2C(O)C1C1C(O)C3C(=O)C3=C(O)c4c(O)cc(C)cc4C(=O)C321` (configuration not stated): the T/C runs as follows: (dose: 3.12 mg/kg/injection, schedule: Q01DX005 (ip), vehicle: Klucel (hydroxypropylcellulose) (HPC)) 110 % of control; (dose: 6.25 mg/kg/injection, schedule: Q01DX005 (ip), vehicle: Klucel (hydroxypropylcellulose) (HPC)) 100 % of control.
On to `O=C(C[n+]1ccccc1)N/N=C/c1ccc([N+](=O)[O-])s1`, for which the T/C under setting [1] is 100 % of control; the T/C (dose: 6.25 mg/kg/injection, schedule: Q01DX009 (ip), vehicle: saline) was 104 % of control; the T/C under setting [2] is 96 % of control; the T/C (dose: 12.5 mg/kg/injection, schedule: Q01DX009 (ip), vehicle: saline) is 100 % of control; the T/C under setting [3] is 116 % of control; the T/C (dose: 25.0 mg/kg/injection, schedule: Q01DX009 (ip), vehicle: saline) was 100 % of control.
`Nc1csc(Nc2c3ccccc3nc3ccccc23)n1`: the T/C by setting is: (dose: 12.5 mg/kg/injection, schedule: Q04DX002 (ip), vehicle: distilled water + Tween-80) 98 % of control; (dose: 25.0 mg/kg/injection, schedule: Q04DX002 (ip), vehicle: distilled water + Tween-80) 97 % of control.
As to `Nc1c(Cl)ncnc1NCCN1CCOCC1`, the T/C was 99 % of control under setting [4] and 96 % of control under setting [5].
`[CH3][Sb]([CH3])([CH3])([CH3])[I]`: the T/C was 98 % of control under setting [6]; 100 % of control under setting [7]; 95 % of control (dose: 200.0 mg/kg/injection, schedule: Q01DX009 (ip), vehicle: saline).
`CC(=O)CC(=O)C1C(S[As](C)C)CC2C3CCC4=CC(=O)C=CC4(C)C3C(=O)CC21C` (configuration not stated): the T/C reads like this: under setting [4], 102 % of control; under setting [5], 91 % of control and 94 % of control; under setting [8], 94 % of control and 98 % of control.
In the case of `CC(C)(C)OOC(=O)C1CCCCC1`, the T/C is 100 % of control under setting [9], 103 % of control under setting [10] and 92 % of control under setting [11].
`CN1c2ccccc2SC2C(c3ccccc3)=NOC21` (configuration not stated): the T/C reads like this: (dose: 3.75 mg/kg/injection, schedule: Q01DX005 (ip), vehicle: saline with Tween-80) 98 % of control; (dose: 7.5 mg/kg/injection, schedule: Q01DX005 (ip), vehicle: saline with Tween-80) 93 % of control; (dose: 15.0 mg/kg/injection, schedule: Q01DX005 (ip), vehicle: saline with Tween-80) 90 % of control; (dose: 30.0 mg/kg/injection, schedule: Q01DX005 (ip), vehicle: saline with Tween-80) 88 % of control; under setting [9], 86 % of control; under setting [11], 89 % of control.
Consider `O=C1CSC(c2ccc(F)cc2)N1c1nncs1` (configuration not stated), for which the T/C reads like this: under setting [9], 99 % of control; under setting [10], 97 % of control; under setting [11], 101 % of control.
Take `CC1(C(Cl)(Cl)Cl)C=CC(=NO)C=C1` (configuration not stated): the T/C is, setting by setting: under setting [4], 110 % of control; under setting [5], 107 % of control; under setting [8], 110 % of control.
With `CC(O)C(NC(=O)OCc1ccccc1)C(=O)NC(Cc1ccccc1)C(=O)O` (stereo not drawn) (Cbz-Thr-Phe-OH; configuration not given here), the T/C by setting is: under setting [4], 100 % of control; under setting [5], 101 % of control; under setting [8], 101 % of control.
With `CN=C(NC)Nc1nc(-c2ccccc2)c(-c2ccccc2)[nH]1`, the T/C reads like this: (dose: 12.5 mg/kg/injection, schedule: Q04DX002 (ip), vehicle: saline with Tween-80) 105 % of control; (dose: 25.0 mg/kg/injection, schedule: Q04DX002 (ip), vehicle: saline with Tween-80) 100 % of control; (dose: 50.0 mg/kg/injection, schedule: Q04DX002 (ip), vehicle: saline with Tween-80) 107 % of control.
As for `CC(C)OC(=O)C1(N)CCCC1`, the T/C runs as follows: under setting [6], 97 % of control; under setting [7], 87 % of control; under setting [12], 95 % of control; under setting [13], 104 % of control.
As to `CCn1c(Cl)c(/C=N/Nc2ccccc2[N+](=O)[O-])c2cc(/C=N/Nc3ccccc3[N+](=O)[O-])ccc21`, the T/C (dose: 100.0 mg/kg/injection, schedule: Q01DX001 (ip), vehicle: Klucel (hydroxypropylcellulose) (HPC)) was 87 % of control; the T/C (dose: 200.0 mg/kg/injection, schedule: Q01DX001 (ip), vehicle: Klucel (hydroxypropylcellulose) (HPC)) was 93 % of control; the T/C (dose: 400.0 mg/kg/injection, schedule: Q01DX001 (ip), vehicle: Klucel (hydroxypropylcellulose) (HPC)) was 91 % of control.
For the molecule `CCCCCCC(=O)NC1=C(N2CC2)C(=O)C(NC(=O)CCCCCC)=C(N2CC2)C1=O`, the T/C reads like this: (dose: 12.5 mg/kg/injection, schedule: Q04DX003 (ip), vehicle: saline with Tween-80) 100 % of control; (dose: 25.0 mg/kg/injection, schedule: Q04DX003 (ip), vehicle: saline with Tween-80) 109 % of control; (dose: 100.0 mg/kg/injection, schedule: Q01DX009 (ip), vehicle: saline with Tween-80) 245 % of control; (dose: 100.0 mg/kg/injection, schedule: Q04DX003 (ip), vehicle: saline with Tween-80) 159 % of control; (dose: 150.0 mg/kg/injection, schedule: Q04DX003 (ip), vehicle: saline with Tween-80) 195 % of control; (dose: 200.0 mg/kg/injection, schedule: Q01DX009 (ip), vehicle: saline with Tween-80) 120 % of control.
As for `CNC(=O)SCCC(=O)OC`, the T/C was 98 % of control (dose: 50.0 mg/kg/injection, schedule: Q01DX005 (ip), vehicle: saline with Tween-80); 100 % of control (dose: 100.0 mg/kg/injection, schedule: Q01DX005 (ip), vehicle: saline with Tween-80); 100 % of control (dose: 200.0 mg/kg/injection, schedule: Q01DX005 (ip), vehicle: saline with Tween-80).
As for `COc1ccc2c(c1)CCC(c1ccccc1)=C2c1ccc(OCCN2CCCC2)cc1`, the T/C reads like this: (dose: 6.0 mg/kg/injection, schedule: Q01DX005 (ip), vehicle: Klucel (hydroxypropylcellulose) (HPC)) 102 % of control; (dose: 12.0 mg/kg/injection, schedule: Q01DX005 (ip), vehicle: Klucel (hydroxypropylcellulose) (HPC)) 105 % of control; (dose: 24.0 mg/kg/injection, schedule: Q01DX005 (ip), vehicle: Klucel (hydroxypropylcellulose) (HPC)) 105 % of control; (dose: 48.0 mg/kg/injection, schedule: Q01DX005 (ip), vehicle: Klucel (hydroxypropylcellulose) (HPC)) 103 % of control.
On to `CN(C)c1ccc2c(Cl)cc(Cl)nc2c1`, for which the T/C is 109 % of control (dose: 12.5 mg/kg/injection, schedule: Q01DX009 (ip), vehicle: Klucel (hydroxypropylcellulose) (HPC)); 109 % of control (dose: 25.0 mg/kg/injection, schedule: Q01DX009 (ip), vehicle: Klucel (hydroxypropylcellulose) (HPC)); 107 % of control (dose: 50.0 mg/kg/injection, schedule: Q01DX009 (ip), vehicle: Klucel (hydroxypropylcellulose) (HPC)); 106 % of control (dose: 100.0 mg/kg/injection, schedule: Q01DX009 (ip), vehicle: Klucel (hydroxypropylcellulose) (HPC)); 103 % of control (dose: 200.0 mg/kg/injection, schedule: Q01DX009 (ip), vehicle: Klucel (hydroxypropylcellulose) (HPC)); 104 % of control (dose: 400.0 mg/kg/injection, schedule: Q01DX009 (ip), vehicle: Klucel (hydroxypropylcellulose) (HPC)).
`O=S(Cl)C(Cl)=C(Cl)Cl` (configuration not stated): the T/C under setting [4] is 106 % of control, the T/C under setting [5] is 104 % of control and the T/C under setting [8] was 103 % of control.
Regarding `CCCCNc1ccc(Nc2ccccc2)cc1`, the T/C runs as follows: under setting [1], 95 % of control; under setting [2], 108 % of control; under setting [3], 115 % of control; (dose: 50.0 mg/kg/injection, schedule: Q01DX009 (ip), vehicle: saline with Tween-80) 121 % of control.
As to `Cn1c(=O)c2[nH]c([N+](=O)[O-])nc2n(C)c1=O`, the T/C is 96 % of control under setting [12]; 100 % of control under setting [13]; 100 % of control (dose: 400.0 mg/kg/injection, schedule: Q04DX003 (ip), vehicle: saline).
For `CCCCCC(O)/C=C/[C@H]1C(O)CC2OC(CSCCC(=O)O)C[C@@H]21` (some centres not stated), the T/C is 103 % of control (dose: 100.0 mg/kg/injection, schedule: Q04DX002 (ip), vehicle: saline with Tween-80) and 96 % of control (dose: 200.0 mg/kg/injection, schedule: Q04DX002 (ip), vehicle: saline with Tween-80).
